Results published in ChEMBL document CHEMBL5579865, “Discovery of Broad-Spectrum Herpes Antiviral Oxazolidinone Amide Derivatives and Their Structure-Activity Relationships” (ACS Med Chem Lett, 2024).
Converted amounts (≈) assume the structure as drawn.

What was measured:
[1] = Inhibition of HCMV DNA polymerase extracted from baculovirus infected Sf21 cells using Heterodimeric nucleic acid as substrate preincubated with enzyme for 30 mins followed by substrate and dATP addition measured after 60 mins by biotinylated UTP incorporation based AlphaLISA assay; design: species or system Human betaherpesvirus 5
[2] = Inhibition of VZV DNA polymerase extracted from baculovirus infected Sf21 cells using Heterodimeric nucleic acid as substrate preincubated with enzyme for 30 mins followed by substrate and dATP addition measured after 60 mins by biotinylated UTP incorporation based AlphaLISA assay; design: species or system Human alphaherpesvirus 3
[3] = Metabolic stability in human liver microsomes assessed as intrinsic clearance; assay type: ADME, Microsome; conditions: read-out: CLH
Human alphaherpesvirus 2 = test: Antiviral activity against HSV-2 G strain infected in African green monkey Vero cells assessed as reduction in viral replication incubated for 72 hrs by qRT-PCR analysis; assay type: functional, organism-based
Human betaherpesvirus 5 = test: Antiviral activity against HCMV AD169 infected in human MRC5 cells assessed as reduction in viral replication incubated for 72 hrs in presence of 50 % serum by qRT-PCR analysis; assay type: functional, organism-based
[4] = Solubility in PBS at pH 7; assay type: physicochemical
Human alphaherpesvirus 1 = test: Antiviral activity against HSV-1 F strain infected in African green monkey Vero cells assessed as reduction in viral replication incubated for 72 hrs by qRT-PCR analysis; assay type: functional, organism-based
Human alphaherpesvirus 3 = test: Antiviral activity against VZV Street infected in human MeWo cells assessed as reduction in viral replication incubated for 72 hrs by qRT-PCR analysis; assay type: functional, organism-based
[5] = Human alphaherpesvirus 2, G strain, Vero, 72 h, read-out: EC50
[6] = Human betaherpesvirus 5, AD169, MRC5, 72 h, read-out: EC50
[7] = Human alphaherpesvirus 1, F strain, Vero, 72 h, read-out: EC50
[8] = Human alphaherpesvirus 3, Street, MeWo, 72 h, read-out: EC50

Row | SMILES | IC50 [1] | IC50 [2] | CLint scaled [3] | EC50 (Human alphaherpesvirus 2; [5]) | EC50 (Human betaherpesvirus 5; [6]) | solubility [4] | EC50 (Human alphaherpesvirus 1; [7]) | EC50 (Human alphaherpesvirus 3; [8]) | EC50 (Human alphaherpesvirus 2) | EC50 (Human betaherpesvirus 5) | EC50 (Human alphaherpesvirus 1) | EC50 (Human alphaherpesvirus 3)
1 | CC(=O)c1ccc(NC(=O)Cc2ccc(Cl)cc2)cc1 | 6600 nM | 4800 nM |  |  |  |  |  |  |  |  |  | 
2 | COc1cc(NC(=O)C2CCc3cc(Cl)ccc32)ccc1C[C@H]1COC(=O)N1 (some centres not stated) | 26 nM | 20 nM | 63 mL/min/kg | 384 nM | 560 nM | 57 µM (≈ 22.8 µg/mL) | 249 nM | 240 nM |  |  |  | 
3 | O=C(Cc1ccc(Cl)cc1Cl)Nc1ccc(C[C@H]2COC(=O)N2)cc1 | 130 nM | 130 nM |  | 910 nM | 1340 nM |  | 810 nM | 540 nM |  |  |  | 
4 | O=C(Cc1ccc(Cl)cc1)Nc1ccc(CC2COC(=O)N2)cc1 (racemic) | 340 nM | 180 nM |  | 3850 nM | 12800 nM | 7 µM (≈ 2.41 µg/mL) | 260 nM | 2130 nM |  |  |  | 
5 | O=C(Cc1ccc(Cl)cc1)Nc1ccc(Cc2ccccc2)cc1 | > 133000 nM | 67000 nM |  |  |  |  |  |  |  |  |  | 
6 | O=C(Cc1ccc(Cl)cc1)Nc1ccc(CC(F)(F)F)cc1 | 133000 nM | 77900 nM |  |  |  |  |  |  |  |  |  | 
7 | O=C(Cc1ccc(Cl)cc1)Nc1ccc(C[C@@H]2COC(=O)N2)cc1 | 2810 nM | 790 nM |  | 8690 nM | 55600 nM |  | 7300 nM | 14800 nM |  |  |  | 
8 | CN(C(=O)Cc1ccc(Cl)cc1Cl)c1ccc(C[C@H]2COC(=O)N2)cc1 | 14600 nM | 14100 nM |  |  |  |  |  |  | Not Active | Not Active | Not Active | Not Active
9 | COc1cc(NC(=O)Cc2ccc(Cl)cc2F)ccc1C[C@H]1COC(=O)N1 | 45 nM | 17 nM | 16 mL/min/kg | 589 nM | 1130 nM | 153 µM (≈ 60.1 µg/mL) | 214 nM | 23 nM |  |  |  | 
10 | O=C1CC(c2ccc(NC(=O)Cc3ccc(Cl)cc3)cc2)CN1 (racemic) | 23300 nM | 8200 nM |  |  |  |  |  |  |  |  |  | 
11 | COc1cc(NC(=O)Cc2c(F)cc(Cl)cc2F)ccc1C[C@H]1COC(=O)N1 | 69 nM | 46 nM |  | 874 nM | 614 nM | 7 µM (≈ 2.88 µg/mL) | 564 nM | 182 nM |  |  |  | 
12 | CCOc1cc(NC(=O)Cc2ccc(Cl)cc2)ccc1C[C@H]1COC(=O)N1 | 45 nM | 18 nM | 29 mL/min/kg | 37 nM | 1200 nM | 76 µM (≈ 29.6 µg/mL) | 97 nM | 85 nM |  |  |  | 
13 | N#CCc1ccc(NC(=O)Cc2ccc(Cl)cc2)cc1 | 50800 nM | 40900 nM |  |  |  |  |  |  |  |  |  | 
14 | O=C(Cc1ccc([N+](=O)[O-])cc1)Nc1ccc(C[C@H]2COC(=O)N2)cc1 | 176 nM | 79 nM |  | 473 nM | 720 nM |  | 177 nM | 185 nM |  |  |  | 
15 | O=C1NC(Cc2ccc(C(=O)NCc3ccc(Cl)cc3)cc2)CO1 (configuration not stated) | 116000 nM | 26000 nM |  |  |  |  |  |  | Not Active | Not Active | Not Active | Not Active
16 | O=C(Cc1ccc(Cl)cc1)Nc1ccc(Cn2cncn2)cc1 | 12100 nM | 4500 nM |  |  |  |  |  |  |  |  |  | 
17 | CN1C(=O)OC[C@@H]1Cc1ccc(NC(=O)Cc2ccc(Cl)cc2)cc1 | 2550 nM | 1840 nM |  |  |  |  |  |  | Not Active | Not Active | Not Active | Not Active
18 | O=C(Cc1ccc(Cl)cc1)Nc1cc(Cl)c(C[C@H]2COC(=O)N2)cn1 | 6310 nM | 2870 nM |  | 64500 nM | 99000 nM |  | 33700 nM |  |  |  |  | Not Active
